Source: paper PMC4158420, “Crenactin from Pyrobaculum calidifontis is closely related to actin in structure and forms steep helical filaments” (Febs Letters, 2014)

Target: T1, crenactin (Pc crenactin) (Pyrobaculum calidifontis, UniProt A3MWN5)
T1 construct: gene cren-1; full length 1-432, codon-optimised, expressed in E. coli as His6-SUMO fusion, tag cleaved by SENP1 with no residues added or removed; helical filament in crystal
Test: X-ray crystallography, […] Å
Type: binding
Conditions: crystals from 100 mM phosphate/citrate pH 4.2, 200 mM lithium sulfate, 20% PEG 1000; one ADP per subunit, 0 Mg; nucleotide cleft between domains I and II

T1 sequence (A3MWN5 whole entry, the tested form may be a part): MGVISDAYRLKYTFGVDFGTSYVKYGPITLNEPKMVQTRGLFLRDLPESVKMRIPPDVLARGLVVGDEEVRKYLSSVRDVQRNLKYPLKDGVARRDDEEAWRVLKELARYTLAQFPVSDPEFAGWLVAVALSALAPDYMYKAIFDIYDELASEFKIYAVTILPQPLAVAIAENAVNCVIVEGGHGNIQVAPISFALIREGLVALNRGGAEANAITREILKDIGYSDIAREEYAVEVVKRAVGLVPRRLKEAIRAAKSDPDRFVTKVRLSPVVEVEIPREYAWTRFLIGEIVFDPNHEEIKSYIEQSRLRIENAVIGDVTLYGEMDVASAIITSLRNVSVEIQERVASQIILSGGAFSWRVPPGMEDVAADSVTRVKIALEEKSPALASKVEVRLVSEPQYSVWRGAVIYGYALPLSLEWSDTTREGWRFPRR

Nc1ncnc2c1ncn2[C@@H]1O[C@H](COP(=O)(O)OP(=O)(O)O)[C@@H](O)[C@H]1O [ADP]
X-ray crystallography, 3.2 Å: one molecule of ADP was located and added in each crenactin subunit
